PubChem BioAssay (NCI)
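GI50 marks 50% less growth. At the TGI there is no net growth.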

Tests used:
Assay in all cases: NCI tumour cell line growth inhibition, 384-well format
[1] = test system: NCI-H226 lung
[2] = test system: NCI-H23 lung
[3] = test system: NCI-H322M lung
[4] = test system: NCI-H460 NSCLC
[5] = test system: NCI-H522 lung
[6] = test system: NCI/ADR-RES ovarian
[7] = test system: OVCAR-3 ovarian
[8] = test system: OVCAR-4 ovarian
[9] = test system: OVCAR-5 ovarian
[10] = test system: OVCAR-8 ovarian
[11] = test system: PC-3 prostate
[12] = test system: RPMI-8226 leukemia
[13] = test system: RXF 393 renal
[14] = test system: SF-268 CNS
[15] = test system: SF-295 CNS
[16] = test system: SF-539 CNS
[17] = test system: SK-MEL-28 melanoma
[18] = test system: SK-MEL-5 melanoma
[19] = test system: SK-OV-3 ovarian
[20] = test system: SN12C renal
[21] = test system: SNB-19 CNS
[22] = test system: SNB-75 CNS
[23] = test system: SR leukemia
[24] = test system: SW-620 colon
[25] = test system: T-47D breast
[26] = test system: TK-10 renal
[27] = test system: U251 glioblastoma
[28] = test system: UACC-257 melanoma
[29] = test system: UACC-62 melanoma
[30] = test system: UO-31 renal

SMILES: Cc1c(C(=O)Nc2ccc(Oc3ccnc4cc(OCC(C)(C)O)ccc34)c(F)c2)c(=O)n(-c2ccccc2)n1C
- TGI [1]: 7.08 µM
- GI50 [2]: 1.52 µM
- TGI [2]: 7.35 µM
- GI50 [3]: 3.34 µM
- TGI [3]: 21.8 µM
- GI50 [4]: 2.62 µM
- TGI [4]: 6.33 µM
- GI50 [5]: 3.74 µM
- TGI [5]: > 36.9 µM
- GI50 [6]: 4.13 µM
- TGI [6]: > 44.1 µM
- GI50 [7]: 4.83 µM
- TGI [7]: > 100 µM
- GI50 [8]: 4.8 µM
- TGI [8]: > 100 µM
- GI50 [9]: 3.04 µM
- TGI [9]: > 100 µM
- GI50 [10]: 3.69 µM
- TGI [10]: > 88.7 µM
- GI50 [11]: 3.76 µM
- TGI [11]: > 100 µM
- GI50 [12]: 3.03 µM
- TGI [12]: 7.45 µM
- GI50 [13]: 1.66 µM
- TGI [13]: 4.11 µM
- GI50 [14]: 3.23 µM
- TGI [14]: > 19.7 µM
- GI50 [15]: 1.37 µM
- TGI [15]: > 23.6 µM
- GI50 [16]: 3.68 µM
- TGI [16]: > 100 µM
- GI50 [17]: 3.58 µM
- TGI [17]: > 30.3 µM
- GI50 [18]: 1.89 µM
- TGI [18]: 4.77 µM
- GI50 [19]: 3.51 µM
- TGI [19]: > 50.8 µM
- GI50 [20]: 0.484 µM
- TGI [20]: 4.82 µM
- GI50 [21]: 4.78 µM
- TGI [21]: > 100 µM
- GI50 [22]: 2.68 µM
- TGI [22]: > 28.1 µM
- GI50 [23]: 2 µM
- TGI [23]: 3.82 µM
- GI50 [24]: 4.53 µM
- TGI [24]: > 100 µM
- GI50 [25]: 1.57 µM
- TGI [25]: 4.72 µM
- GI50 [26]: 5.2 µM
- TGI [26]: > 100 µM
- GI50 [27]: 4.93 µM
- TGI [27]: > 100 µM
- GI50 [28]: 3.24 µM
- TGI [28]: 22 µM
- GI50 [29]: 1.41 µM
- TGI [29]: 4.21 µM
- GI50 [30]: 4.31 µM
- TGI [30]: > 100 µM
